Patent US20240000871A1, “Lactobacillus gasseri capable of alleviating and treating hyperuricemia” (Jiangnan University, priority 2020, published 2024)

Test system: fecal short-chain fatty acids
Experiment: Fecal short-chain fatty acids of mice with hyperuricemia
Format: in vivo
Settings: feces at the end of the experiment
Method: 24 healthy male KM mice with the weight of 38 to 44 g were randomly divided into four groups after a week of acclimatization, namely a control group, a hyperuricemia model group, an L. gasseri CCFM1133 intervention group (CCFM1133) and an allopurinol intervention group (allopurinol). Except the control group, 500 mg/kg BW hypoxanthine was given to the other groups every day by intragastric administration, and 100 mg/kg BW oteracil potassium was intraperitoneally injected to the other groups every day. At 1 h before processing with hypoxanthine and oteracil potassium, 0.4 mL of 30 g/L sucrose (a control solvent) was given to the control group and the hyperuricemia model group, L. gasseri CCFM1133 bacterial suspension (30 g/L sucrose solution containing L. gasseri CCFM1133 thallus) with the concentration of 1×10^9 CFU/mouse was given to the L. gasseri CCFM1133 intervention group, and 5 mg/kg BW allopurinol was given to the allopurinol group. […]
The short-chain fatty acids were separated by using an Rtx-Wax column. The short-chain fatty acids (acetic acid, propionic acid, isobutyric acid, butyric acid, isovaleric acid and valeric acid) were detected in a full scanning mode (the mass-to-charge ratio scanning range is 33 to 110). Characteristic ions of analyte standards were selected for quantitative analysis.

Oc1ncnc2[nH]ncc12 [allopurinol]
Effect on fecal short-chain fatty acid levels (acetic, propionic, isobutyric, butyric, isovaleric and valeric acid): does not have much of the effect
